Experimental data published in PubChem BioAssay AID1963830 (Molecular Pharmacology Branch, DTP, NCI, 2024).

System: 922993-354-T-J3-PDC complex spheroid viability
Experiment: Anticancer human tumor 922993-354-T-J3-PDC patient-derived endometrial carcinoma cell line growth inhibition [POLQ]
Conditions: for IC50: curve of first compound; for viability, T/C: stronger effect = lower value
Outline: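 PDC + HUVEC + MSC complex spheroids; POLQ inhibitors ± partner drugs; top conc. at/near clinical Cmax, else 10 microM (SN-38 1 microM), half-log dilutions; 37 degrees C, 5% CO2.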

[1] = second compound 0.0316 µM, first compound 0.0316 µM
[2] = second compound 0.0316 µM, first compound 0.1 µM
[3] = second compound 0.0316 µM, first compound 0.316 µM
[4] = second compound 0.0316 µM, first compound 1 µM
[5] = second compound 0.0316 µM, first compound 3.16 µM
[6] = second compound 0.0316 µM, first compound 10 µM
[7] = second compound 0.1 µM, first compound 0.0316 µM
[8] = second compound 0.1 µM, first compound 0.1 µM
[9] = second compound 0.1 µM, first compound 0.316 µM
[10] = second compound 0.1 µM, first compound 1 µM
[11] = second compound 0.1 µM, first compound 3.16 µM
[12] = second compound 0.1 µM, first compound 10 µM
[13] = second compound 0.316 µM, first compound 0.0316 µM
[14] = second compound 0.316 µM, first compound 0.1 µM
[15] = second compound 0.316 µM, first compound 0.316 µM
[16] = second compound 0.316 µM, first compound 1 µM
[17] = second compound 0.316 µM, first compound 3.16 µM
[18] = second compound 0.316 µM, first compound 10 µM
[19] = second compound 1 µM, first compound 0.0316 µM
[20] = second compound 1 µM, first compound 0.1 µM
[21] = second compound 1 µM, first compound 0.316 µM
[22] = second compound 1 µM, first compound 1 µM
[23] = second compound 1 µM, first compound 3.16 µM
[24] = second compound 1 µM, first compound 10 µM
[25] = second compound 3.16 µM, first compound 0.0316 µM
[26] = second compound 3.16 µM, first compound 0.1 µM
[27] = second compound 3.16 µM, first compound 0.316 µM
[28] = second compound 3.16 µM, first compound 1 µM
[29] = second compound 3.16 µM, first compound 3.16 µM
[30] = second compound 3.16 µM, first compound 10 µM
[31] = second compound 10 µM, first compound 0.0316 µM
[32] = second compound 10 µM, first compound 0.1 µM
[33] = second compound 10 µM, first compound 0.316 µM
[34] = second compound 10 µM, first compound 1 µM
[35] = second compound 10 µM, first compound 3.16 µM
[36] = second compound 10 µM, first compound 10 µM
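Also: spheroids exposed to the agents for one week.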
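For viability, T/C in this document: 100% = DMSO vehicle control wells.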

## C#Cc1c(F)ccc2cc(O)cc(-c3ncc4c(N5CC6CCC(C5)N6)nc(OCC56CCCN5CC(F)C6)nc4c3F)c12 (stereo unspecified) + COC1C(OC(N)=O)C(O)C(Oc2ccc3c(O)c(NC(=O)c4ccc(O)c(CC=C(C)C)c4)c(=O)oc3c2C)OC1(C)C
Second compound 0.0316 µM
  IC50: > 10 µM
Second compound 0.1 µM
  IC50: > 10 µM
Second compound 0.316 µM
  IC50: > 10 µM
Second compound 1 µM
  IC50: > 10 µM
Second compound 3.16 µM
  IC50: > 10 µM
Second compound 10 µM
  IC50: > 10 µM
[1]
  viability, T/C: 100%
[2]
  viability, T/C: 97.4%
[3]
  viability, T/C: 90.5%
[4]
  viability, T/C: 101%
[5]
  viability, T/C: 98%
[6]
  viability, T/C: 79.5%
[7]
  viability, T/C: 105%
[8]
  viability, T/C: 101%
[9]
  viability, T/C: 98.8%
[10]
  viability, T/C: 90.3%
[11]
  viability, T/C: 94.9%
[12]
  viability, T/C: 90.4%
[13]
  viability, T/C: 105%
[14]
  viability, T/C: 98.4%
[15]
  viability, T/C: 104%
[16]
  viability, T/C: 87.2%
[17]
  viability, T/C: 92.8%
[18]
  viability, T/C: 90%
[19]
  viability, T/C: 96.9%
[20]
  viability, T/C: 98.8%
[21]
  viability, T/C: 94.9%
[22]
  viability, T/C: 94.2%
[23]
  viability, T/C: 93%
[24]
  viability, T/C: 86.9%
[25]
  viability, T/C: 96.9%
[26]
  viability, T/C: 90.3%
[27]
  viability, T/C: 98.3%
[28]
  viability, T/C: 81.7%
[29]
  viability, T/C: 99.5%
[30]
  viability, T/C: 74.9%
[31]
  viability, T/C: 81.8%
[32]
  viability, T/C: 86.2%
[33]
  viability, T/C: 90.4%
[34]
  viability, T/C: 89.5%
[35]
  viability, T/C: 96.2%
[36]
  viability, T/C: 72.1%

## C=CC(=O)N1CCN(c2nc(=O)n(-c3c(C)ccnc3C(C)C)c3nc(-c4c(O)cccc4F)c(F)cc23)C(C)C1 (stereo unspecified) + COC1C(OC(N)=O)C(O)C(Oc2ccc3c(O)c(NC(=O)c4ccc(O)c(CC=C(C)C)c4)c(=O)oc3c2C)OC1(C)C
Second compound 0.0316 µM
  IC50: > 10 µM
Second compound 0.1 µM
  IC50: > 10 µM
Second compound 0.316 µM
  IC50: > 10 µM
Second compound 1 µM
  IC50: > 10 µM
Second compound 3.16 µM
  IC50: > 10 µM
Second compound 10 µM
  IC50: > 10 µM
[1]
  viability, T/C: 102%
[2]
  viability, T/C: 94.8%
[3]
  viability, T/C: 98.9%
[4]
  viability, T/C: 101%
[5]
  viability, T/C: 92.8%
[6]
  viability, T/C: 84.1%
[7]
  viability, T/C: 98.9%
[8]
  viability, T/C: 107%
[9]
  viability, T/C: 93.3%
[10]
  viability, T/C: 91.4%
[11]
  viability, T/C: 88.3%
[12]
  viability, T/C: 97.6%
[13]
  viability, T/C: 102%
[14]
  viability, T/C: 101%
[15]
  viability, T/C: 103%
[16]
  viability, T/C: 96.5%
[17]
  viability, T/C: 96.2%
[18]
  viability, T/C: 99.6%
[19]
  viability, T/C: 101%
[20]
  viability, T/C: 97.5%
[21]
  viability, T/C: 97.4%
[22]
  viability, T/C: 98.6%
[23]
  viability, T/C: 93%
[24]
  viability, T/C: 104%
[25]
  viability, T/C: 102%
[26]
  viability, T/C: 94.2%
[27]
  viability, T/C: 95.9%
[28]
  viability, T/C: 92%
[29]
  viability, T/C: 97.4%
[30]
  viability, T/C: 101%
[31]
  viability, T/C: 85.8%
[32]
  viability, T/C: 88.4%
[33]
  viability, T/C: 89.8%
[34]
  viability, T/C: 85.9%
[35]
  viability, T/C: 88.3%
[36]
  viability, T/C: 85%

## CC(C)n1c(=O)n(C)c2cnc3cc(F)c(-c4ccc(OCCCN5CCCCC5)nc4)cc3c21 + COC1C(OC(N)=O)C(O)C(Oc2ccc3c(O)c(NC(=O)c4ccc(O)c(CC=C(C)C)c4)c(=O)oc3c2C)OC1(C)C
Second compound 0.0316 µM
  IC50: > 10 µM
Second compound 0.1 µM
  IC50: > 10 µM
Second compound 0.316 µM
  IC50: > 10 µM
Second compound 1 µM
  IC50: > 10 µM
Second compound 3.16 µM
  IC50: > 10 µM
Second compound 10 µM
  IC50: > 10 µM
[1]
  viability, T/C: 111%
[2]
  viability, T/C: 90.8%
[3]
  viability, T/C: 104%
[4]
  viability, T/C: 94.8%
[5]
  viability, T/C: 84.2%
[6]
  viability, T/C: 59%
[7]
  viability, T/C: 103%
[8]
  viability, T/C: 97.2%
[9]
  viability, T/C: 104%
[10]
  viability, T/C: 91.9%
[11]
  viability, T/C: 83.3%
[12]
  viability, T/C: 63.7%
[13]
  viability, T/C: 99.2%
[14]
  viability, T/C: 104%
[15]
  viability, T/C: 94.1%
[16]
  viability, T/C: 93.5%
[17]
  viability, T/C: 84.3%
[18]
  viability, T/C: 66.5%
[19]
  viability, T/C: 88.9%
[20]
  viability, T/C: 98.3%
[21]
  viability, T/C: 100%
[22]
  viability, T/C: 91.9%
[23]
  viability, T/C: 86.9%
[24]
  viability, T/C: 70.3%
[25]
  viability, T/C: 95.9%
[26]
  viability, T/C: 104%
[27]
  viability, T/C: 85.5%
[28]
  viability, T/C: 86.2%
[29]
  viability, T/C: 85.1%
[30]
  viability, T/C: 56.7%
[31]
  viability, T/C: 81%
[32]
  viability, T/C: 77.1%
[33]
  viability, T/C: 89.6%
[34]
  viability, T/C: 74.1%
[35]
  viability, T/C: 70.2%
[36]
  viability, T/C: 63%
